In US8999956B2, “N-[(het)arylalkyl)] pyrazole(thio)carboxamides and their heterosubstituted analogues” (Bayer Intellectual Property GmbH, priority 2010, dated 2015) one finds logP and chromatographic logP data, which are given here for 31 compounds.

The first data set can be described thus: log P by HPLC on reversed-phase column (EEC Directive 79/831 Annex V.A8). It is filed as physicochemical.
Details: not given
The method, then:
In table 1, the log P values were determined in accordance with EEC Directive 79/831 Annex V.A8 by HPLC (High Performance Liquid Chromatography) on a reversed-phase column (C18), using the method described below: Temperature: 40° C.; […]
Take `Cn1nc(C(F)F)c(C(=O)NC(COc2ccc3ccccc3c2)C2CC2)c1Cl` (racemic) [Example 138]: the logP came to 3.94. The same measure, in the same setting: for `CN(C(=O)c1c(C(F)F)nn(C)c1Cl)C(COc1ccc2ccccc2c1)C1CC1` (racemic) [Example 140] the value was 3.96; for `CN(C(=O)c1c(C(F)F)nn(C)c1Cl)C(COc1ccccc1Cl)C1CC1` (racemic) [Example 146], 3.67.

In the case of `CC(O)C1CCCCC1NC(=O)c1c(C(F)F)nn(C)c1F` (single isomer, unassigned) [Example 342], the logP stood at 2.08 isomer B. `CC(C)N(CC(=O)Nc1ccccc1)C(=O)c1c(C(F)F)nn(C)c1F` [Example 1] gave a logP of 2.25. The same measure, in the same setting: the figure for `CC(C)N(CC(=O)Nc1ccccc1)C(=O)c1c(C(F)F)nn(C)c1Cl` [Example 2] is 2.43. Same read-out and setting: for `Cn1nc(C(F)F)c(C(=O)NC2(C(=O)Nc3ccccc3)CCCC2)c1F` [Example 3] the value was 2.46; for `Cn1nc(C(F)F)c(C(=O)NC2(C(=O)Nc3ccccc3)CCCC2)c1Cl` [Example 4], 2.62; for `CCCN(CCOc1ccccc1)C(=O)c1c(C(F)F)nn(C)c1Cl` [Example 7], 3.21. Still for that read-out and setting: the figure for `CCCN(CCOc1ccccc1)C(=O)c1c(C(F)F)nn(C)c1F` [Example 8] is 3.06; for `CC(COc1ccccc1)N(C)C(=O)c1c(C(F)F)nn(C)c1Cl` (stereo not shown) [Example 15] it is 2.78. `CN(CC(NC(=O)c1c(C(F)F)nn(C)c1Cl)C1CC1)c1ccccc1` (stereo not shown) [Example 18] yielded a logP of 3.31. In turn, `Cn1nc(C(F)F)c(C(=O)NC(COc2ccccc2)C2CC2)c1Cl` (stereo not shown) [Example 20] showed a logP of 3.25. Still for that read-out and setting: the figure for `Cn1nc(C(F)F)c(C(=O)NC(CSc2ccccc2)C2CC2)c1Cl` (stereo not shown) [Example 23] is 3.44; for `Cn1nc(C(F)F)c(C(=O)NC(C)(C)C(=O)Nc2ccccc2)c1F` [Example 24] it is 2.10. Still for that read-out and setting: for `Cn1nc(C(F)F)c(C(=O)NC(C)(C)C(=O)Nc2ccccc2)c1Cl` [Example 25] the value was 2.27. On the same count and under the same terms, for `Cn1nc(C(F)F)c(C(=O)NCCOc2ccc(-c3ccccc3)cc2)c1Cl` [Example 26] the value was 3.60; for `Cn1nc(C(F)F)c(C(=O)NCCOc2ccc(-c3ccccc3)cc2)c1F` [Example 27], 3.44.

As for `CCCN(C(=O)c1c(C(F)F)nn(C)c1F)C(C)COc1ccccc1-c1ccccc1` (stereo not shown) [Example 30], the logP was found to be 4.32. Same read-out and setting: for `CCCN(C(=O)c1c(C(F)F)nn(C)c1Cl)C(C)COc1ccccc1-c1ccccc1` (stereo not shown) [Example 31] the value was 4.51; for `CCN(C(=O)c1c(C(F)F)nn(C)c1Cl)C(C)COc1ccc(C)cc1` (stereo not shown) [Example 39], 3.48. Still for that read-out and setting: for `Cc1ccc(SCC(C2CC2)N(C)C(=O)c2c(C(F)F)nn(C)c2Cl)cc1` (stereo not shown) [Example 41] the value was 3.85; for `Cn1nc(C(F)F)c(C(=O)NCCOc2ccc(Cl)cc2)c1Cl` [Example 49], 2.96. With `Cn1nc(C(F)F)c(C(=O)N(CCOc2ccc(Cl)cc2)C2CCC2)c1F` [Example 50], the logP is given as 3.78. The same measure, in the same setting: for `Cn1nc(C(F)F)c(C(=O)N(CCOc2ccc(Cl)cc2)C2CCCC2)c1Cl` [Example 51] the value was 4.32; for `Cn1nc(C(F)F)c(C(=O)N(CCOc2ccc(Cl)cc2)C2CCC2)c1Cl` [Example 52], 3.99; for `CC(C)N(CCOc1ccc(Cl)cc1)C(=O)c1c(C(F)F)nn(C)c1Cl` [Example 53], 3.78. Still for that read-out and setting: for `CCCN(CCOc1ccc(Cl)cc1)C(=O)c1c(C(F)F)nn(C)c1Cl` [Example 54] the value was 3.67; for `Cn1nc(C(F)F)c(C(=O)N(CCOc2ccc(Cl)cc2)C2CCCC2)c1F` [Example 55], 4.13. Still for that read-out and setting: for `CC(C)N(CCOc1ccc(Cl)cc1)C(=O)c1c(C(F)F)nn(C)c1F` [Example 56] the value was 3.62.

Staying with this data set, now noted: reversed-phase HPLC column (C18), HPLC, 0.1% aqueous formic acid and acetonitrile, 40° C.; read-out: log P.
Consider `CC(C)(C)C#Cc1cccc(N)c1` [3-(3,3-dimethylbut-1-yn-1-yl)aniline], for which the chromatographic logP came out at 2.71.
